Measurements as given in patent US20200325518A1, “Systems and Methods for Metabolic Assessment Utilizing 1-Methoxy-PMS Field” (priority 2019, published 2020).

System: E. coli
Experiment: CLSI overnight reference method MIC of antimicrobials against E. coli strains
Type: cell-based
Settings: for MIC (CLSI Ref): unit assumed
[1] = E. coli strain Clinical Sample 1
[2] = E. coli strain Clinical Sample 2
[3] = E. coli strain Clinical Sample 4
[4] = E. coli strain Clinical Sample 5
[5] = E. coli strain Clinical Sample 6
[6] = E. coli strain Clinical Sample 7
[7] = E. coli strain Clinical Sample 8
[8] = E. coli strain Clinical Sample 9
[9] = E. coli strain Clinical Sample 10
[10] = E. coli strain Clinical Sample 11
[11] = E. coli strain Clinical Sample 12
[12] = E. coli strain Clinical Sample 13

Compound | MIC (CLSI Ref) (E. coli strain BEI 4.097) | MIC (CLSI Ref) (E. coli strain CDC Carba36) | MIC (CLSI Ref) [1] | MIC (CLSI Ref) [2] | MIC (CLSI Ref) [3] | MIC (CLSI Ref) [4] | MIC (CLSI Ref) [5] | MIC (CLSI Ref) [6] | MIC (CLSI Ref) [7] | MIC (CLSI Ref) [8] | MIC (CLSI Ref) [9] | MIC (CLSI Ref) [10] | MIC (CLSI Ref) [11] | MIC (CLSI Ref) [12] | CLSI breakpoint interpretation [2]
C[C@@H](O)[C@H]1C(=O)N2C(C(=O)O)=C(S[C@@H]3CN[C@H](C(=O)N(C)C)C3)[C@H](C)[C@H]12 [MEM, Meropenem] | < 0.06 µg/mL | < 0.06 µg/mL | < 0.06 µg/mL | < 0.06 µg/mL | < 0.06 µg/mL | < 0.06 µg/mL | < 0.06 µg/mL | < 0.06 µg/mL | < 0.06 µg/mL | < 0.06 µg/mL | < 0.06 µg/mL | < 0.06 µg/mL | < 0.06 µg/mL | < 0.06 µg/mL | –
CN(C)[C@@H]1C(=O)C(C(N)=O)=C(O)[C@@]2(O)C(=O)C3=C(O)c4c(O)cccc4[C@@](C)(O)[C@H]3C[C@@H]12 [TET, Tetracycline] | 32 µg/mL | 8 µg/mL | 4 µg/mL | > 32 µg/mL | 4 µg/mL | > 32 µg/mL | 2 µg/mL | 4 µg/mL | 8 µg/mL | 4 µg/mL | 4 µg/mL | 4 µg/mL | 4 µg/mL | 4 µg/mL | R
NC[C@H]1O[C@H](O[C@H]2[C@H](O)[C@@H](O[C@H]3O[C@H](CO)[C@@H](O)[C@H](N)[C@H]3O)[C@H](N)C[C@@H]2N)[C@H](N)C[C@@H]1O [TOB, Tobramycin] | 1 µg/mL | 1 µg/mL | 2 µg/mL | 1 µg/mL | 1 µg/mL | 1 µg/mL | 1 µg/mL | 1 µg/mL | 2 µg/mL | 4 µg/mL | 16 µg/mL | 1 µg/mL | 1 µg/mL | 1 µg/mL | –
Ampicillin/sulbactam [SAM] | 8 µg/mL | > 32 µg/mL | 4 µg/mL | 16 µg/mL | 16 µg/mL | 8 µg/mL | 2 µg/mL | 16 µg/mL | 64 µg/mL | 32 µg/mL | 16 µg/mL | 4 µg/mL | 2 µg/mL | > 32 µg/mL | I
Colistin [CST] | 0.12 µg/mL | 0.25 µg/mL | 0.12 µg/mL | 0.12 µg/mL | 0.25 µg/mL | 0.25 µg/mL | 0.12 µg/mL | 0.12 µg/mL | 0.12 µg/mL | 0.5 µg/mL | 0.25 µg/mL | 0.5 µg/mL | 0.25 µg/mL | 0.25 µg/mL | –
Gentamycin | 0.5 µg/mL | 2 µg/mL | 0.5 µg/mL | 4 µg/mL | 0.5 µg/mL | 2 µg/mL | 0.5 µg/mL | 0.5 µg/mL | 1 µg/mL | 1 µg/mL | > 16 µg/mL | 2 µg/mL | 1 µg/mL | 1 µg/mL | –
Penicillin | 16 µg/mL | > 16 µg/mL | > 16 µg/mL | > 16 µg/mL | > 16 µg/mL | > 16 µg/mL | 16 µg/mL | > 16 µg/mL | > 16 µg/mL | > 16 µg/mL | > 16 µg/mL | > 16 µg/mL | > 16 µg/mL | 16 µg/mL | –
Piperacillin/tazobactam [TZP] | 4 µg/mL | 128 µg/mL | 4 µg/mL | 8 µg/mL | 4 µg/mL | 4 µg/mL | 2 µg/mL | 4 µg/mL | 32 µg/mL | > 128 µg/mL | 2 µg/mL | 2 µg/mL | 2 µg/mL | 32 µg/mL | –
Trimethoprim-Sulfamethoxazole [SXT] | < 0.5 µg/mL | < 0.5 µg/mL | < 0.5 µg/mL | 4 µg/mL | > 32 µg/mL | > 32 µg/mL | 2 µg/mL | > 32 µg/mL | < 0.5 µg/mL | > 32 µg/mL | > 32 µg/mL | < 0.5 µg/mL | < 0.5 µg/mL | < 0.5 µg/mL | R
